How the values were obtained:
Test in all cases: relative viability (nuclei count vs DMSO), 5 days (fraction); higher = more cells survive
[1] = compound: CC(C)N(CCCNC(=O)Nc1ccc(C(C)(C)C)cc1)C[C@H]1O[C@@H](n2ccc3c(N)ncnc32)[C@H](O)[C@@H]1O + N=C(N)NC(=N)NCCc1ccccc1 [Phenformin] (partner 250 µM)
Summary of the method: (§1)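 Values are medians from duplicate plates. Each reflects relative viability, defined as the nuclei count of treated wells over that of vehicle wells. Lung cancer cell lines in 1536-well plates were pin-tool dosed one day after seeding with one drug alone or with a fixed anchor-drug dose plus five library-drug doses (not always all listed) in √10 steps, then fixed, stained and imaged at 4× after 5 days.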

Shikonin + Bortezomib = compound: CC(C)=CC[C@@H](O)C1=CC(=O)c2c(O)ccc(O)c2C1=O [Shikonin] + CC(C)C[C@H](NC(=O)[C@H](Cc1ccccc1)NC(=O)c1cnccn1)B(O)O [Bortezomib] (partner 0.002 µM)
Summary of the method: as §1

Shikonin + Pemetrexed = compound: CC(C)=CC[C@@H](O)C1=CC(=O)c2c(O)ccc(O)c2C1=O [Shikonin] + Nc1nc2[nH]cc(CCc3ccc(C(=O)N[C@@H](CCC(=O)O)C(=O)O)cc3)c2c(=O)[nH]1 [Pemetrexed] (partner 0.2 µM)
Summary of the method: as §1

Shikonin = compound: CC(C)=CC[C@@H](O)C1=CC(=O)c2c(O)ccc(O)c2C1=O [Shikonin]
Summary of the method: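 Lung cancer cell lines in 1536-well plates were exposed by pinning to five library-drug doses (not always all listed) √10 apart, following an overnight hold at 37 °C. MetaXpress counted Hoechst-stained nuclei from 4× images taken after 5 days without medium change. Viability is the median ratio of treated-well to vehicle-well nuclei across plates. Plates required control CV below 25% and at least one doubling.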

Cell Line | relative viability ([1]; first compound 0.08 µM) | relative viability ([1]; first compound 0.253 µM) | relative viability ([1]; first compound 0.8 µM) | relative viability ([1]; first compound 2.53 µM) | relative viability ([1]; first compound 8 µM) | relative viability (Shikonin + Bortezomib; first compound 0.01 µM) | relative viability (Shikonin + Bortezomib; first compound 0.1 µM) | relative viability (Shikonin + Bortezomib; first compound 0.3162 µM) | relative viability (Shikonin + Bortezomib; first compound 1 µM) | relative viability (Shikonin + Pemetrexed; first compound 0.01 µM) | relative viability (Shikonin + Pemetrexed; first compound 0.1 µM) | relative viability (Shikonin + Pemetrexed; first compound 0.3162 µM) | relative viability (Shikonin + Pemetrexed; first compound 1 µM) | relative viability (Shikonin; 0.01 µM) | relative viability (Shikonin; 0.1 µM) | relative viability (Shikonin; 0.3162 µM) | relative viability (Shikonin; 1 µM)
EKVX | 0.229 | 0.241 | 0.223 | 0.228 | 0.202 | 0.995 | 1.81 | 1.28 | 1.18 | 0.438 | 0.435 | 0.472 | 0.362 | 1 | 0.963 | 1.08 | 0.964
EMC-BAC-2 | 0.564 | 0.581 | 0.565 | 0.543 | 0.449 | 1.05 | 1.18 | 1.21 | 1.07 | 0.44 | 0.503 | 0.453 | 0.422 | 0.97 | 0.997 | 1.11 | 1.13
EPLC-272H | 0.286 | 0.271 | 0.32 | 0.296 | 0.298 | 0.76 | 0.923 | 0.957 | 0.923 | 0.264 | 0.314 | 0.334 | 0.297 | 0.906 | 0.974 | 1.06 | 1.09
H3255 | 0.375 | 0.365 | 0.371 | 0.416 | 0.372 | 0.755 | 1.09 | 0.92 | 1.03 | 0.592 | 0.563 | 0.605 | 0.577 | 0.978 | 1.06 | 1.05 | 1.02
HARA | 0.458 | 0.413 | 0.388 | 0.425 | 0.363 | 1.16 | 1.24 | 1.16 | 1.24 | 0.265 | 0.306 | 0.255 | 0.24 | 0.931 | 1.21 | 1.07 | 1.22
HCC-15 | 0.466 | 0.483 | 0.431 | 0.423 | 0.407 | 1.16 | 1.15 | 1.08 | 1.22 | 0.228 | 0.225 | 0.233 | 0.213 | 1.06 | 1.04 | 1.12 | 1.09
HCC-44 | 0.142 | 0.155 | 0.232 | 0.219 | 0.125 | 0.946 | 0.99 | 0.864 | 0.933 | 0.652 | 0.678 | 0.667 | 0.637 | 1 | 1.05 | 1.03 | 1.09
HCC-78 | 0.804 | 0.611 | 0.682 | 0.641 | 0.717 | 0.572 | 0.474 | 0.607 | 0.552 | 0.91 | 0.844 | 0.941 | 0.893 | 0.942 | 1.14 | 1.04 | 1.15
HCC-366 | 0.625 | 0.627 | 0.754 | 0.588 | 0.53 | 1.32 | 1.59 | 1.12 | 1.08 | 0.172 | 0.185 | 0.161 | 0.15 | 0.975 | 1.15 | 1.04 | 1.03
